How the values were obtained:
[1] = target: neurokinin 1 receptor (NK1R) (Homo sapiens, UniProt P25103); assay: BRET assay, antagonist mode; assay type: biochemical; conditions: antagonist added 15 min before 100 nM substance P, Figure S4G
[2] = test system: NAcC D2-MSNs; assay: electrically evoked EPSCs, whole-cell voltage clamp, NAcC D2-MSNs; assay type: cell-based, mice; conditions: for EPSC amplitude, %baseline (block of substance-P-induced potentiation) / EPSC amplitude, %baseline (block of stimulation-induced potentiation) / EPSC amplitude, %baseline (block of stimulation-induced LLP): mean ± SEM; for effect of antagonist alone on synaptic properties: absence of other stimuli, Figures S2C–S2F
[3] = test system: NAcC ChAT neurons; assay: ChAT neuron firing rate; assay type: cell-based, mice; conditions: for spontaneous ChAT firing rate in the absence of substance P: L-733,060 10 μM or aprepitant 1 μM, Figure S4I; for stimulation-enhanced ChAT firing rate: 50-Hz D1-MSN stimulation; for substance-P-enhanced ChAT firing rate: substance P 100 nM
[4] = test system: NAcC D2-MSNs; assay: paired pulse ratios, NAcC D2-MSNs; assay type: cell-based, mice; conditions: D1-MSN 50-Hz stimulation with inhibitor; Figures S7A–S7D
[5] = test system: AMPAR currents on NAcC D2-MSNs; assay: AMPAR current-voltage relationship; assay type: cell-based, mice; conditions: +40 mV; for inward rectification of AMPAR currents caused by stimulation: D1-MSN 50-Hz stimulation with inhibitor, Figures 7B, 7D, 7F, 7H
[6] = test system: NAcS D2-MSNs; assay: electrically evoked EPSCs, whole-cell voltage clamp, NAcS D2-MSNs; assay type: cell-based, mice; conditions: D1-MSN 50-Hz stimulation

Sequence of neurokinin 1 receptor (NK1R) (P25103 whole entry, species assumed): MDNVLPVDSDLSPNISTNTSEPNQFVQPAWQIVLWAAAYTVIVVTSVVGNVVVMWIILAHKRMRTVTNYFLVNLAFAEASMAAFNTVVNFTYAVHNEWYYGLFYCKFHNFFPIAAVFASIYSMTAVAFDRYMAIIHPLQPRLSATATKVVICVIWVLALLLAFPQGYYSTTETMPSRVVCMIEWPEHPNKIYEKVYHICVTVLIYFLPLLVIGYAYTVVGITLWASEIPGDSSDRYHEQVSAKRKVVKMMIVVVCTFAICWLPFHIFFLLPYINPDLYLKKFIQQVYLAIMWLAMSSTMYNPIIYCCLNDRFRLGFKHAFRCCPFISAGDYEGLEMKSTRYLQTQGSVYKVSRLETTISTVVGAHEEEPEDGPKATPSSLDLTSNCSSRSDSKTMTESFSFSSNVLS
Sequence of neurokinin 1 receptor (NK1R) (P50148 whole entry partner, species assumed): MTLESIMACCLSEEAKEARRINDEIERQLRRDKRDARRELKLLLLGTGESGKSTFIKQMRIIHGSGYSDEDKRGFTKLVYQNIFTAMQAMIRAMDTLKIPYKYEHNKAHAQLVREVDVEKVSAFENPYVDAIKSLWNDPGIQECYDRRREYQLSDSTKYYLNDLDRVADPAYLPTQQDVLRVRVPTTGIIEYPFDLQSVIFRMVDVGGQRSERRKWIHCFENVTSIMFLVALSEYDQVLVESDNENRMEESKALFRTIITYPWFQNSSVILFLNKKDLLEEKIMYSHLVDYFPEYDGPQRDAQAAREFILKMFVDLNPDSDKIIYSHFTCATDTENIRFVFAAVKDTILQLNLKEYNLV

With `Cl.FC(F)(F)c1cc(CO[C@H]2CCCN[C@H]2c2ccccc2)cc(C(F)(F)F)c1` [L-733,060] the “concentration of maximal inhibition of receptor activity” value [1] was about 10 µM, the “EPSC amplitude, %baseline (block of substance-P-induced potentiation)” value ([2]; L-733,060 10 μM with substance P bath application, n = 9, p > 0.05, Figure 2B) was 101.1% ±7.07% and the “EPSC amplitude, %baseline (block of stimulation-induced potentiation)” value ([2]; L-733,060, 5 min of NAcC D1-MSN 50-Hz stimulation, transient depression, Figure S2B) was 79.52% ± 8.22%. For the same molecule, the “effect of antagonist alone on synaptic properties” value [2] was “neither L-733,060 nor aprepitant altered synaptic properties”, the “spontaneous ChAT firing rate in the absence of substance P” value [3] was “did not have effects on spontaneous ChAT firing rate” and the “stimulation-enhanced ChAT firing rate” value ([3]; L-733,060 10 μM, Figure S5C) was “blocked”. The “substance-P-enhanced ChAT firing rate” value ([3]; L-733,060 10 μM, Figures 4F, 4G) was “suppressed” and the “concentration of maximal inhibition of enhanced ChAT firing” value ([3]; against 100 nM substance P, Figure 4E) was 10 µM.

For `COc1ccc2c(c1)CC[C@@H]1[C@@H]2CC[C@]2(C)[C@@H](NCCCCCCN3C(=O)C=CC3=O)CC[C@@H]12` [U-73122], the “EPSC amplitude, %baseline (block of stimulation-induced LLP)” value ([2]; U-73122 3 μM, D1-MSN 50-Hz stimulation, n = 9, p < 0.05, Figure 7C) was 66.06% ± 8.70%, the “paired pulse ratio change after stimulation” value (shortened to “paired pulse ratio change”) [4] was “significantly increased” and the “inward rectification of AMPAR currents caused by stimulation” value [5] was “prevented inward rectification”.

With `C[C@@H](O[C@H]1OCCN(Cc2n[nH]c(=O)[nH]2)[C@H]1c1ccc(F)cc1)c1cc(C(F)(F)F)cc(C(F)(F)F)c1` [aprepitant] the “concentration of maximal inhibition of receptor activity” value [1] was about 10 µM, the “effect of antagonist alone on synaptic properties” value [2] was “neither L-733,060 nor aprepitant altered synaptic properties” and the “EPSC amplitude, %baseline (block of stimulation-induced potentiation)” value ([2]; aprepitant 1 μM, single 5-s, 50-Hz train of D1-MSN stimulation, n = 8, p > 0.05, Figure 2G) was 98.02% ± 10.73%. The “spontaneous ChAT firing rate in the absence of substance P” value [3] was “did not have effects on spontaneous ChAT firing rate”, the “stimulation-enhanced ChAT firing rate” value ([3]; aprepitant 1 μM, n = 13, p > 0.05, Figure 5B) was “suppressed, but not completely blocked” and the “substance-P-enhanced ChAT firing rate” value ([3]; aprepitant 1 μM, Figure S4H) was “suppressed”.

With `CC(=O)C1=C(O)[C@@H]2[C@H]3c4c[nH]c5cccc(c45)C[C@H]3C(C)(C)N2C1=O` [CPA, cyclopiazonic acid] the “EPSC amplitude, %baseline (block of stimulation-induced LLP)” value ([2]; CPA, depletion of calcium stores, D1-MSN 50-Hz stimulation, n = 8, p > 0.05, Figure 7G) was 80.18% ± 7.07%, the “paired pulse ratio change” value [4] was “significantly increased” and the “inward rectification of AMPAR currents caused by stimulation” value [5] was “prevented inward rectification”.

In the case of `O=C(O)CN(CC(=O)O)c1ccccc1OCCOc1ccccc1N(CC(=O)O)CC(=O)O` [BAPTA, 1,2-bis(o-aminophenoxy)ethane-N,N,N′,N′-tetra-acetic acid], the cells potentiated ([2]; BAPTA 10 mM internal, D1-MSN 50-Hz stimulation, Figure 7E) is reported as 3/9 and the “paired pulse ratio change” value [4] is reported as “lack of ability to detect a change in PPR”.

In the case of picrotoxin, the “increase in baseline ChAT firing frequency” value ([3]; picrotoxin, on average, Figure S5F) is reported as 1.37 ± 0.66 Hz.

With `CN1CCN(CC(=O)N2c3ccccc3C(=O)Nc3cccnc32)CC1` [pirenzepine] the “EPSC amplitude, %baseline (block of substance-P-induced potentiation)” value ([2]; pirenzepine 1 μM, substance P 100 nM, Figures 6A, S6B) was 103.1% ± 12.95%, the “EPSC amplitude, %baseline (block of substance-P-induced potentiation)” value ([2]; pirenzepine 1 μM, substance P 1 μM, Figures 6A, S6B) was 89.88% ± 9.14% and the “synaptic properties in D2-MSNs” value ([2]; pirenzepine alone, Figure S6E) was “did not affect synaptic properties”. The “ChAT firing rate at baseline and its enhancement due to substance P” value ([3]; pirenzepine, Figures S6C, S6D) was “neither affected ChAT firing rate at baseline nor the enhancement in firing frequency due to substance P” and the “AMPAR inward rectification caused by substance P or 50 Hz stimulation” value ([5]; pirenzepine, Figures 6C, 6D) was “prevented this rectification”.

In the case of `CC[N+](CC)(CCNC(=O)C(=O)NCC[N+](CC)(CC)Cc1ccccc1Cl)Cc1ccccc1Cl` [ambenonium], the “stimulation-induced depression on NAcS D2-MSNs” value ([6]; ambenonium 40 nM (acetylcholinesterase block), Figure S6G) is reported as “did not alleviate the depression”.

With `Oc1ccc2c3c1O[C@H]1c4[nH]c5c(c4C[C@@]4(O)[C@@H](C2)N(CC2CC2)CC[C@]314)C[C@@]1(O)[C@H]2Cc3ccc(O)c4c3[C@@]1(CCN2CC1CC1)[C@H]5O4` [norbinaltorphimine] the “EPSC amplitude, %baseline (stimulation-induced depression)” value ([6]; norbinaltorphimine 400 nM, mean ± SEM, Figure S1H) was 61.56% ± 10.78%.

`CC[C@H](NC(=O)c1c(C)c(-c2ccccc2)nc2ccccc12)c1ccccc1` [SB-2220] was tested, and the “substance-P-enhanced ChAT firing rate, further block” value ([3]; addition of 1 μM NK3R antagonist SB-2220, Figure S4J) was “not blocked any further”.

Source: PMC6712577 (Neuron, 2019)
